Results reported in patent publication US8859543B2, “Imidazo[1,2-a]pyrazine derivatives and their use for the prevention or treatment of neurological, psychiatric and metabolic disorders and diseases” (Janssen Pharmaceutica NV, priority 2010, dated 2014).
Where two headings read alike, the source gives them in different places. One block for each compound: values may come before it.

Columns and labels:
[1] = tested on: scopolamine induced memory deficit; test: Object recognition test (scopolamine induced memory deficit); type: in vivo, rat; settings: rats
Experimental: They were kept under a 12/12-hour light/dark cycle (lights on from 19.00 to 7.00 h) and had free access to food and water. […] A radio, which was playing softly, provided background noise in the room. […] The apparatus consisted of a circular arena, 83 cm in diameter. […] The light intensity was equal in the different parts of the apparatus, as fluorescent red tubes provided a constant illumination of about 20 lux on the floor of the apparatus. […] Each object was available in triplicate. Four different sets of objects were used. A testing session consisted of two trials. […] During the first trial (T1) the apparatus contained two identical objects (samples). Rats were placed in the apparatus facing the wall at the middle of the front (transparent) segment. After the first exploration period the rat was put back in its home cage. […] Exploration was defined as follows: directing the nose to the object at a distance of no more than 2 cm and/or touching the object with the nose. Sitting on the object was not considered as exploratory behavior.

[2] = tested on: apomorphine-induced stereotypy; test: Apomorphine-induced stereotypy in rats (APO); type: in vivo; settings: Rattus norvegicus
Experimental: Apomorphine-Induced Stereotypy in Rats (APO)
Apomorphine (1.0 mg/kg, i.v.)-induced stereotypy (compulsive sniffing, licking, chewing) was scored every 5 min. over the first hour after injection of apomorphine, following a 1 hour interval pre-treatment with the test compound. The score system was: (3) pronounced, (2) moderate, (1) slight, and (O) absent.

[3] = tested on: PCP-induced hyperlocomotion; test: PCP-induced hyperlocomotion in rats (PCP); type: in vivo; settings: Rattus norvegicus
[4] = molecular target: T1, Rat recombinant PDE10A (rPDE10A2) (Rattus norvegicus, UniProt Q9QYJ6); test: In vitro assay PDE10A (SPA, 3H-cAMP); type: biochemical
T1 construct: made in house; host or cells: Sf9 insect cells, baculovirus
T1 sequence (Q9QYJ6 1-794): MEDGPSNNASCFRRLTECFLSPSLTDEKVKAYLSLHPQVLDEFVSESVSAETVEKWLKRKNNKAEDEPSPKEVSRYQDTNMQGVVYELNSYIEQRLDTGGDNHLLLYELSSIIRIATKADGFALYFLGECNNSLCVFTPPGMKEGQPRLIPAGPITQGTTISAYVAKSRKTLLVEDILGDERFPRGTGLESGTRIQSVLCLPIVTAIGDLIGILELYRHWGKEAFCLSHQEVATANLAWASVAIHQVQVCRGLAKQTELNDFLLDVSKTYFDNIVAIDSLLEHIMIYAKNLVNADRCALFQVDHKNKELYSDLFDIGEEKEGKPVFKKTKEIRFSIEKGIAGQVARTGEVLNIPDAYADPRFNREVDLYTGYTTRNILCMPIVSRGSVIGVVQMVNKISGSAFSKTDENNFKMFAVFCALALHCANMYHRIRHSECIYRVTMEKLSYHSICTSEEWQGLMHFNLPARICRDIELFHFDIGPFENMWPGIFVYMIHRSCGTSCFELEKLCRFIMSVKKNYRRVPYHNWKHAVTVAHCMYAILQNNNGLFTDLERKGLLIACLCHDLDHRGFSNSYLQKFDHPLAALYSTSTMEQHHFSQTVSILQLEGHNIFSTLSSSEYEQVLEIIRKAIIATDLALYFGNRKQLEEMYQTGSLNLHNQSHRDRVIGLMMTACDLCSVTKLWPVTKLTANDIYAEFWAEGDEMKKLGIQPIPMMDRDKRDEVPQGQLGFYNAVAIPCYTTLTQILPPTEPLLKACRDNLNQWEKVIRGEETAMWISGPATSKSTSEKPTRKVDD
How it was run: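 Purified Sf9-expressed rat PDE10A2 incubated 60 min at RT with 60 nM cAMP plus 0.008 μCi 3H-cAMP in 50 mM Tris pH 7.8, 8.3 mM MgCl2, 1.7 mM EGTA, 1% DMSO final. Product quantified by scintillation proximity counting against no-enzyme blanks and DMSO controls.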

PDE10 = molecular target: T2, PDE10 (Rattus norvegicus, UniProt Q9QYJ6); test: PDE10 occupancy ([3H]-MP-10, striatum); type: in vivo; settings: administered s.c.; for ED50: rat, sc, occupancy, read-out: Occ. ED50
T2 construct: from tissue; host or cells: rat brain sections, striatum (ex vivo autoradiography after in vivo dosing)
T2 sequence (Q9QYJ6 1-794): T1 sequence (Q9QYJ6 1-794)
Experimental: Dose-response or single dose experiments were performed to measure PDE10 occupancy 1 hour after subcutaneous (s.c.) or oral (p.o.) administration. Male Wistar rats (200 g) were treated by s.c. or p.o. administration of various PDE10 inhibitors. The PDE10 radioligand [^3H]-MP-10 (10 μCi/animal) was injected intravenously (i.v.) 30 minutes before sacrifice. Brains were immediately removed from the skull and rapidly frozen. Twenty μm-thick brain sections were cut using a cryostat-microtome, thaw-mounted on microscope slides and loaded in a β-imager to quantify PDE10 occupancy in the striatum.

PDE1B = PDE1B (Homo sapiens, UniProt Q01064); test: In vitro PDE selectivity assay, PDE1B; type: biochemical; settings: Table 4a in vitro selectivity; read-out: IC50 PDE type 1B
Experimental: (§1) Rat recombinant PDE10A (rPDE10A2) was expressed in Sf9 cells using a recombinant rPDE10A baculovirus construct. Cells were harvested after 48 h of infection and the rPDE10A protein was purified by metal chelate chromatography on Ni-sepharose 6FF. […] The reaction was incubated for 60 min. at RT. […] After sedimentation of the beads during 30 min. the radioactivity was measured in a Perkin Elmer Topcount scintillation counter and results were expressed as cpm. For blank values the enzyme was omitted from the reaction and replaced by incubation buffer. […] The same assay principle is applied for the measurement of the affinity of the compound for other members of the PDE family with appropriate modifications in incubation buffer, substrate concentration, incubation time and stop solution.

PDE9A = PDE9A (Homo sapiens, UniProt O76083); test: In vitro PDE selectivity assay, PDE9A; type: biochemical
Sequence of PDE9A (O76083 whole entry): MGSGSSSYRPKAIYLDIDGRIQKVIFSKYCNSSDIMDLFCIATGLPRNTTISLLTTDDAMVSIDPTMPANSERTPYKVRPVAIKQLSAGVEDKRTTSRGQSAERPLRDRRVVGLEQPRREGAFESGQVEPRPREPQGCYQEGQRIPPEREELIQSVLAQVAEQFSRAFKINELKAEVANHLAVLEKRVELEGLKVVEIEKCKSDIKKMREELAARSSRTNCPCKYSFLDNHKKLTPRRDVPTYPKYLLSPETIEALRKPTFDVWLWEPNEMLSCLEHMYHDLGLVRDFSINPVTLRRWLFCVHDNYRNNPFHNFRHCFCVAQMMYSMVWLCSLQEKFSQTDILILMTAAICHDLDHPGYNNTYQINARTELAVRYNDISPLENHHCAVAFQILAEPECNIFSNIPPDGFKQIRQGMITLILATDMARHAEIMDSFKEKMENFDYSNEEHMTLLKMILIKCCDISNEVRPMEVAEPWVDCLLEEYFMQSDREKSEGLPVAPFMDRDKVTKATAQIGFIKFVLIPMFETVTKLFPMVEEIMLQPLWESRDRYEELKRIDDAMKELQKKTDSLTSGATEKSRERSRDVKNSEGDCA
Experimental: as §1

PDE4D = PDE4D (Homo sapiens, UniProt Q08499); test: In vitro PDE selectivity assay, PDE4D; type: biochemical; settings: Table 4a in vitro selectivity; read-out: IC50 PDE type 4D
Sequence of PDE4D (Q08499 whole entry, species assumed): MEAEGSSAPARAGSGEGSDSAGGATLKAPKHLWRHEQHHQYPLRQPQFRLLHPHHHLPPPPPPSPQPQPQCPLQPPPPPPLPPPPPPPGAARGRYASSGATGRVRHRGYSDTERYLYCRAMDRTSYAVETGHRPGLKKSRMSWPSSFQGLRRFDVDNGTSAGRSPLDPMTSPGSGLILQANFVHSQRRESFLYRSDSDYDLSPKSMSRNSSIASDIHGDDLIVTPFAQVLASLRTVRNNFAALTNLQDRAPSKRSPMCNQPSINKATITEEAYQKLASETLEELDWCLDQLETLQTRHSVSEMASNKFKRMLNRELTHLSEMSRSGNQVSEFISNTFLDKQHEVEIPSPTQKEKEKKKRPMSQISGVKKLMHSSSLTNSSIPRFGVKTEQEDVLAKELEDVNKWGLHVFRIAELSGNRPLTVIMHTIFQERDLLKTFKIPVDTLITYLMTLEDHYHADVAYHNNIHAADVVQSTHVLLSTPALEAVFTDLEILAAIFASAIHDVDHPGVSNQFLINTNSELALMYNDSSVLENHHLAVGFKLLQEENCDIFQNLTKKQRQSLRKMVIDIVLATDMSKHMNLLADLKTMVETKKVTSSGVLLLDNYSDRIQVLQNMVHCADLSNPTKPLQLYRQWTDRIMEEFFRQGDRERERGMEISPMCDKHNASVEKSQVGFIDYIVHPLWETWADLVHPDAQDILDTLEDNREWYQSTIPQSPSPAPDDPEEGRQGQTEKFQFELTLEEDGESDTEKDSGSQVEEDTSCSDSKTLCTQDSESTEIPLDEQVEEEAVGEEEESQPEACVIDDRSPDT
Experimental: as §1

PDE3A = PDE3A (Homo sapiens, UniProt Q14432); test: In vitro PDE selectivity assay, PDE3A; type: biochemical; settings: Table 4a in vitro selectivity; read-out: IC50 PDE type 3A
Sequence of PDE3A (Q14432 whole entry): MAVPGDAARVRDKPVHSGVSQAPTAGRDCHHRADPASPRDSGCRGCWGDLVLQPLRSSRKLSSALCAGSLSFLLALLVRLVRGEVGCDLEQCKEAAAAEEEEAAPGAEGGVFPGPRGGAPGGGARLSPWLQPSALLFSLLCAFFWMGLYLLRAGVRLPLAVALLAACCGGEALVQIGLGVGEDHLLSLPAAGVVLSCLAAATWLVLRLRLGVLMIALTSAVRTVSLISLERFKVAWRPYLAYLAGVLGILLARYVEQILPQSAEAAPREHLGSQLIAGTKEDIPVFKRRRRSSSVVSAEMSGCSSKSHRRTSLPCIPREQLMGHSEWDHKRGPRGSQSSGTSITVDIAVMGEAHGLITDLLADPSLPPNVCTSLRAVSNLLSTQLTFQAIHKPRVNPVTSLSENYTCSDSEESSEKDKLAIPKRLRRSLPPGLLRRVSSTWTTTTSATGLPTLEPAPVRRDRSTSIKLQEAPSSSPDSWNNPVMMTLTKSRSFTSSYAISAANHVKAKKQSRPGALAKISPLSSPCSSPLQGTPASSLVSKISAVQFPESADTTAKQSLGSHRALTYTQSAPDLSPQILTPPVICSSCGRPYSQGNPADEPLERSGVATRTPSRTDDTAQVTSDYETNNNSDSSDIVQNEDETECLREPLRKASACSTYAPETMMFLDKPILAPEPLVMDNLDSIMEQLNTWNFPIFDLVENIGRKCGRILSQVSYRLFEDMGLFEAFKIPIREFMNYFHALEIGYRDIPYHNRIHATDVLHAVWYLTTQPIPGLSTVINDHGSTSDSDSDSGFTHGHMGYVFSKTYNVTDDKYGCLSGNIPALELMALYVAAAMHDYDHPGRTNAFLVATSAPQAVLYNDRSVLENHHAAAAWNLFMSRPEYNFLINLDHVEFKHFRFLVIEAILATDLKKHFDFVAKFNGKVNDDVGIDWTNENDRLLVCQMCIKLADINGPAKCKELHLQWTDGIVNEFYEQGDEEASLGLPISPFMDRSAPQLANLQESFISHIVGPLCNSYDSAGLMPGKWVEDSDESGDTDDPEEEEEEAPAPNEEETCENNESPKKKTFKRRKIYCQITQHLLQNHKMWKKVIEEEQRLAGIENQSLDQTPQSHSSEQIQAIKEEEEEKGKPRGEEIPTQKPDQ
Experimental: as §1

PDE5A = PDE5A (Homo sapiens, UniProt O76074); test: In vitro PDE selectivity assay, PDE5A; type: biochemical; settings: Table 4a in vitro selectivity; read-out: IC50 PDE type 5A
Experimental: as §1

PDE7A = PDE7A (Homo sapiens, UniProt Q13946); test: In vitro PDE selectivity assay, PDE7A; type: biochemical; settings: Table 4a in vitro selectivity; read-out: IC50 PDE type 7A
Sequence of PDE7A (Q13946 whole entry, species assumed): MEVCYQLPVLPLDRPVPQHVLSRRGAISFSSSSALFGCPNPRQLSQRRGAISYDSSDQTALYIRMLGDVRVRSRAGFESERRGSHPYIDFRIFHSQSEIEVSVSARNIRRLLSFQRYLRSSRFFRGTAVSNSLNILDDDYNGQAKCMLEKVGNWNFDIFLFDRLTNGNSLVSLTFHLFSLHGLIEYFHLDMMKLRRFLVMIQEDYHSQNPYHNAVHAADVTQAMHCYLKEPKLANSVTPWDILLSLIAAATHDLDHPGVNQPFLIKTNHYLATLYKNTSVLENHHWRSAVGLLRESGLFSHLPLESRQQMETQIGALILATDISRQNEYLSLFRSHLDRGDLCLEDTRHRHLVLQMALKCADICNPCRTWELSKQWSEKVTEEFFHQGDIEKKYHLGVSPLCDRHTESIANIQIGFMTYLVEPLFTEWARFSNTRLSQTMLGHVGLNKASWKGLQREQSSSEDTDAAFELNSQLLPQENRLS
Experimental: as §1

PDE11A = PDE11A (Homo sapiens, UniProt Q9HCR9); test: In vitro PDE selectivity assay, PDE11A; type: biochemical; settings: Table 4a in vitro selectivity; read-out: IC50 PDE type 11A
Sequence of PDE11A (Q9HCR9 whole entry, species assumed): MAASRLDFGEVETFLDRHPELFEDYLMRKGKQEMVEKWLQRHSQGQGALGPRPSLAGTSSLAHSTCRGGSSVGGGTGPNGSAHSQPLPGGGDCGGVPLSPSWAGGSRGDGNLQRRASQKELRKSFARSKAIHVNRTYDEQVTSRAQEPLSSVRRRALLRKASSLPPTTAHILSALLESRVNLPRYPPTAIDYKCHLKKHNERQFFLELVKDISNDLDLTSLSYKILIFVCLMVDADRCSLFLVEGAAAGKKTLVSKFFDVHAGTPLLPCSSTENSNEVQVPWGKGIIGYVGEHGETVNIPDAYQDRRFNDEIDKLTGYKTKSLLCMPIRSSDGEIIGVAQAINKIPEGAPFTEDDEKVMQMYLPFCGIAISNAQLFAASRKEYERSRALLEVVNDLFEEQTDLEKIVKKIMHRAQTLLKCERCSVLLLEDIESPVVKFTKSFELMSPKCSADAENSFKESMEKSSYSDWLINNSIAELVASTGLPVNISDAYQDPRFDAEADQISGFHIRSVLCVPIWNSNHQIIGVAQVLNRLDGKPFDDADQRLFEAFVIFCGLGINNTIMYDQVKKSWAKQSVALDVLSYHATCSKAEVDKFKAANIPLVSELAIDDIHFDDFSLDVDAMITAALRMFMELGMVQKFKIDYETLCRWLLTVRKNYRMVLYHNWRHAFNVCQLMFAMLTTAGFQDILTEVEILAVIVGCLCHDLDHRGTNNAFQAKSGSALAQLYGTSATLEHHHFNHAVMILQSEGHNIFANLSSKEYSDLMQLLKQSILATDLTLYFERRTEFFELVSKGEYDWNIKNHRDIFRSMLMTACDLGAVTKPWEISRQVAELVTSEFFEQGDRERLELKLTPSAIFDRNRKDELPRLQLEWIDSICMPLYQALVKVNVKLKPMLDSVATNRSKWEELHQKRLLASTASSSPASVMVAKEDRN
Experimental: as §1

PDE2A = PDE2A (Homo sapiens, UniProt O00408); test: In vitro PDE selectivity assay, PDE2A; type: biochemical
Sequence of PDE2A (O00408 whole entry, species assumed): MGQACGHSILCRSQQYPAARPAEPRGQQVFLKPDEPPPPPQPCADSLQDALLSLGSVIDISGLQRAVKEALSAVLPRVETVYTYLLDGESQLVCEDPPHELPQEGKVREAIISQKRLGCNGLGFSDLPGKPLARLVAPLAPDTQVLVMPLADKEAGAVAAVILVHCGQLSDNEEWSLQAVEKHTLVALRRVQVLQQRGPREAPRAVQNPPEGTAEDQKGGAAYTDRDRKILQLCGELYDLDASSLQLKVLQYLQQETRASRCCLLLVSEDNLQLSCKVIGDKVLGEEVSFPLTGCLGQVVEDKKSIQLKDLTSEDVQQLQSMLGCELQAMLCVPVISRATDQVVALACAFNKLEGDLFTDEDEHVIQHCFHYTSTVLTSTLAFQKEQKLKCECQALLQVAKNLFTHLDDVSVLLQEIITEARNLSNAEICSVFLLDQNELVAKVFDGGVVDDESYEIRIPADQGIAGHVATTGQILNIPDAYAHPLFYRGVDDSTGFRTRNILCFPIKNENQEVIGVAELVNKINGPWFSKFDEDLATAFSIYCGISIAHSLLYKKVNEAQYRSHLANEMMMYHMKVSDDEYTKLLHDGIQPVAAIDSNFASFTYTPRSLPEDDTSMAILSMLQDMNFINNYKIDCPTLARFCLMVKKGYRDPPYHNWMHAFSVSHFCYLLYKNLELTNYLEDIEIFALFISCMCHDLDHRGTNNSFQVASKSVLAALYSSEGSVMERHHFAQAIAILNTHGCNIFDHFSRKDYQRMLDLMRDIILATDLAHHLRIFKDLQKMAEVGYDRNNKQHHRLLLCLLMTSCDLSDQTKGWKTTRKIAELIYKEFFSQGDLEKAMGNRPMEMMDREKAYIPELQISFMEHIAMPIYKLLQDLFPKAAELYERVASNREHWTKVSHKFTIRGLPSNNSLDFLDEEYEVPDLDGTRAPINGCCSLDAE
Experimental: as §1

[5] = tested on: conditioned avoidance response; test: Conditioned avoidance response (CAR) test; type: in vivo; settings: Rattus norvegicus
Source text: Conditioned Avoidance Response (CAR) Test
The apparatus consisted of an inner box surrounded by an outer box. The inner box was composed of four walls of transparent, synthetic material (length×width×height: 30×30×30 cm), an open top, and a grid floor made of 15 pairs of iron bars (2 mm diameter; 6 mm inter-bar distance). Odd and even bars were connected with a source of alternative current (1.0 mA; Coulbourn Instruments Solid State Shocker/Distributor), which could be interrupted by a switch. The outer box was composed of the same material (length×width×height: 40×40×36 cm), also with an open top, with a distance of 5 cm between the inner and outer box on all sides. To decrease the amount of environmental stimuli, three walls of the outer box were made non-transparent. The front wall was left transparent to allow the necessary inspection of the animal during the test. The upper edge of the outer and inner box served as a target for the rats on which to jump with fore- and hind-paws, respectively.
From their arrival in the laboratory on the experimental day, male Wiga Wistar rats (230±30 g) were housed in individual cages provided with bedding material.
The rats were tested 3 times, i.e. at 60, 90 and 120 min after the injection of test compound or solvent. Latency to avoidance was recorded. The median avoidance response obtained over the three experimental sessions for each rat were used for further calculations.

[6] = pIC50 corresponds to the -log IC50 expressed in mol/L, read-out: PDE10A2 pIC50 (converted)

Structure (SMILES): COc1cc2ncnc(N3CC[C@@H](Oc4cnc5ccccc5n4)C3)c2cc1OC [PQ10, 6,7-dimethoxy-4-[3(R)-(quinoxalin-2-yloxy)pyrrolidin-1-yl]quinazoline]
index of discrimination (d2), mean ([1]; 1 mg/kg p.o. + Scop. 0.1 mg/kg, 1 h delay): 0.27
discrimination compared to the vehicle/scopolamine condition (post-hoc analysis) ([1]; 1 mg/kg p.o. + scopolamine): significantly better discrimination

Structure (SMILES): Cc1nc2c(N3CCOCC3)nccn2c1-c1cnn(CC2CC2(F)F)c1 (stereo not drawn) [compound 52]
ED50 ([2]; read-out: APO ED50): 3.1 mg/kg
ED50 [3]: ≤ 10 mg/kg
IC50 [4, 6]: 52.5 nM
ED50 (PDE10): 5.5 mg/kg

Structure (SMILES): COC(C)(C)Cn1cc(-c2c(C)nc3c(N4CCOCC4)nccn23)cn1 [compound 72]
ED50 ([2]; read-out: APO ED50): 1.2 mg/kg
ED50 [3]: 2 mg/kg
IC50 [4, 6]: 95.5 nM
ED50 (PDE10): 6.4 mg/kg

Structure (SMILES): COCCc1ncc(-c2c(C)nc3c(N4CCOCC4)nccn23)cn1 [compound 33, 3-[2-(2-Methoxy-ethyl)-pyrimidin-5-yl]-2-methyl-8-morpholin-4-yl-imidazo[1,2-a]pyrazine]
IC50 (PDE1B): 2950 nM
ED50 ([2]; read-out: APO ED50): 0.8 mg/kg
IC50 (PDE9A; Table 4a in vitro selectivity, read-out: IC50 PDE type 9A): > 10000 nM
IC50 (PDE4D): > 10000 nM
IC50 (PDE3A): > 10000 nM
IC50 (PDE5A): > 10000 nM
IC50 ([4]; Table 4a in vitro selectivity, read-out: IC50 PDE type 10A): 500 nM
IC50 [4, 6]: 148 nM
IC50 (PDE7A): > 10000 nM
IC50 (PDE11A): > 10000 nM
IC50 (PDE2A; Table 4a in vitro selectivity, read-out: IC50 PDE type 2A): > 10000 nM

Structure (SMILES): Cc1nc2c(N3CCOCC3)nccn2c1-c1cnn(CC2CCCCO2)c1 (single isomer, unassigned) [compound 70]
ED50 ([2]; read-out: APO ED50): 5 mg/kg
ED50 [3]: 3.2 mg/kg
IC50 [4, 6]: 91.2 nM

Structure (SMILES): Cc1nc2c(N3CCOCC3)nccn2c1-c1cnn(CC(C)C)c1 [compound 97]
ED50 ([2]; read-out: APO ED50): 2 mg/kg
ED50 [5]: 12.3 mg/kg
ED50 [3]: 5.4 mg/kg

IC50 [4, 6]: 324 nM
Structure (SMILES): c1cn2c(-c3cnn(CC4CC4)c3)cnc2c(N2CCOCC2)n1 [compound 119]
ED50 ([2]; not active at 2.5 or at 10 mg/kg, not further tested, read-out: APO ED50 (not active at threshold dose)): > 2.5 mg/kg
Selectivity PDE2A (PDE2A; in vitro selectivity towards PDE10A versus PDE2A): ≧10 fold, except compound 119 (>3.02 fold selectivity)

Structure (SMILES): CO[C@@H](C)Cn1cc(-c2c(C)nc3c(N4CCOCC4)nccn23)cn1 [compound 57]
ED50 ([2]; read-out: APO ED50): 1.2 mg/kg
ED50 [5]: 5 mg/kg
PDE10A2 pIC50 ([4]; pIC50 corresponds to the -log IC50 expressed in mol/L): 7.22
ED50 (PDE10): 8 mg/kg

Structure (SMILES): Cc1nc2c(-c3ccncc3)nccn2c1-c1cnn(CC(C)C)c1 [compound 69]
ED50 ([2]; read-out: APO ED50): 5 mg/kg
ED50 [3]: 2 mg/kg
IC50 [4, 6]: 89.1 nM
% Occ. at 10 mg/kg (PDE10): 67%

Structure (SMILES): COCCc1ccc(-c2c(C)nc3c(N4CCOCC4)nccn23)cn1 [compound 16, 3-[6-(2-Methoxy-ethyl)-pyridin-3-yl]-2-methyl-8-morpholin-4-yl-imidazo[1,2-a]pyrazine]
ED50 ([2]; read-out: APO ED50): 1 mg/kg
ED50 [5]: 2 mg/kg
ED50 [3]: 1.54 mg/kg

Structure (SMILES): COC(C)(C)Cn1cc(-c2c(C)nc3c(-c4ccncc4)nccn23)cn1 [compound 78]
ED50 ([2]; read-out: APO ED50): 1.2 mg/kg
Selectivity PDE9 (PDE9A; in vitro selectivity towards PDE10A versus PDE9): >10-100 fold, except 78 (<10 fold selectivity)
IC50 [4, 6]: 105 nM
% Occ. at 10 mg/kg (PDE10): 76%
